Source: US12595226B2, “Carbonate containing lipid compounds and compositions for intracellular delivery of therapeutic agents” (ModernaTX, Inc., priority 2019, dated 2026)

test: Residual lipid levels in the liver of mice after LNP administration; type: in vivo, CD-1 mice; conditions: calculation assumes a 25 g mouse with a 1.5 g liver, >95% equals very slowly metabolism of the lipid

Compound | Approx. Percent Total Dose of Parent Lipid Remaining at 24 h [%]
CCCCCCCCCOC(=O)OCCCCCCN(CCO)CCCCCCCC(=O)OC(CCCCCCCC)CCCCCCCC [Compound 6, Heptadecan-9-yl 8-((2-hydroxyethyl)(6-(((nonyloxy)carbonyl)oxy)hexyl)amino)octanoate] | 2
CCCCCCCCC(CCCCCCCC)OC(=O)CCCCCCCN(CCO)CCCCCCOC(=O)OCCC(CCCCC)CCCCC [Compound 64, Heptadecan-9-yl 8-((2-hydroxyethyl)(6-((((3-pentyloctyl)oxy)carbonyl)oxy)hexyl)amino)octanoate] | 51
CCCCCCCCC(CCCCCCCC)OC(=O)CCCCCCCN(CCCCCCOC(=O)OCCC(CCCCCC)CCCCCC)CCCNc1c(NC)c(=O)c1=O [Compound 65, Heptadecan-9-yl 8-((6-((((3-hexylnonyl)oxy)carbonyl)oxy)hexyl)(3-((2-(methylamino)-3,4-dioxocyclobut-1-en-1-yl)amino)propyl)amino)octanoate] | >95
CCCCCCCCC(CCCCCCCC)OC(=O)CCCCCCCN(CCO)CCCCCCOC(=O)OCCC(CCCCCC)CCCCCC [Compound 66, Heptadecan-9-yl 8-((6-((((3-hexylnonyl)oxy)carbonyl)oxy)hexyl)(2-hydroxyethyl)amino)octanoate] | 48
CCCCCCCCC(CCCCCCCC)OC(=O)CCCCCCCN(CCCCCCOC(=O)OCCC(CCCCC)CCCCC)CCCNc1c(NC)c(=O)c1=O [Compound 67, Heptadecan-9-yl 8-((3-((2-(methylamino)-3,4-dioxocyclobut-1-en-1-yl)amino)propyl)(6-((((3-pentyloctyl)oxy)carbonyl)oxy)hexyl)amino)octanoate] | >95
